Molecules are shown by their SMILES.

The test addresses T1, GRK2 (Homo sapiens, UniProt P25098).
T1 sequence (P25098 1-689): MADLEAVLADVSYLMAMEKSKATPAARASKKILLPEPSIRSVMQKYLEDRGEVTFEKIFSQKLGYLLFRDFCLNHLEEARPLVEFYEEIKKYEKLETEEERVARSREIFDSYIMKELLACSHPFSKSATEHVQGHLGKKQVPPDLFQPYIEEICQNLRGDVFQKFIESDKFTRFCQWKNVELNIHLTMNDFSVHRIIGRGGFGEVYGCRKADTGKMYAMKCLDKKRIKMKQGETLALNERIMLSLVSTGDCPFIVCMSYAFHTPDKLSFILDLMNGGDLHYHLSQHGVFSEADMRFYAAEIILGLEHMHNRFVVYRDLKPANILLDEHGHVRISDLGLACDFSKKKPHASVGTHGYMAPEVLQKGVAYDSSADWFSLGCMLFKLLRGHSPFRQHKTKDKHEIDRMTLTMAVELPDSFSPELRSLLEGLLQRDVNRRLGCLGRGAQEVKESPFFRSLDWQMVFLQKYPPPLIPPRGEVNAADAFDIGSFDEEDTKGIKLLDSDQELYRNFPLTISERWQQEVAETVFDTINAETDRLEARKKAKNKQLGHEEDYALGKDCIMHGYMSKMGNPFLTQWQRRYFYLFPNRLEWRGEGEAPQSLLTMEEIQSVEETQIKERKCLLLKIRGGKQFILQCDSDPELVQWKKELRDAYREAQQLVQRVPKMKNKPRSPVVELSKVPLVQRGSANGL
Nature of the test: hGRK2 LANCE Ultra in vitro kinase assay. It is filed as biochemical. The conditions noted are these: 10 nM GRK2; ATP 30 or 600 μM (not stated which); read-out: GRK2 Lancer IC50. As to the method: hGRK2 LANCER In Vitro Assay
This assay is sensitive and requires as low as 10 nM enzyme, in a total volume of 10 μL. In addition, the ATP concentration can be varied over a broad range, without interfering with the assay or changing the assay condition. […] Testing inhibitors routinely at both high and low ATP concentrations also enables identification of potential non-ATP competitive inhibitors.
This assay measures IC50 values of test compounds (inhibitors) by monitoring GRK2 enzymatic activity at varying inhibitor concentrations.
Test compounds were dissolved in DMSO at 1 mM and were 3-fold serial diluted. The compound DMSO solutions were then added (100 nL) into a plate well using an acoustic dispenser. To each well was then added 20 nM GRK2 (5 μL) in assay buffer (20 mM HEPES, pH 7.5, 10 mM MgCl2, 0.001% Tween-20). The plate was sealed and centrifuged at 1000 rpm for 1 min. The plate and wells containing a mixture of GRK2 and test compound were incubated at ambient temperature for 30 min (prior to initializing the enzymatic reaction).
Enzyme reactions were initiated by the addition of 4.9 μL Substrates/Eu-Ab mix to each well. […] Final concentrations of reagents in the assays were as follows: 20 mM HEPES, pH 7.5; 10 mM MgCl2; 0.001% Tween-20 (w/v); 30 or 600 μM ATP; 200 nM ULight-peptide; 4 nM Eu-Ab; 10 nM GRK2; and 1% DMSO.
The plates were sealed and centrifuged at 1000 rpm for 1 min. For reactions at low ATP concentration (30 μM), reaction mixtures were incubated at ambient temperature for 120 min. For reactions at high ATP concentration (600 μM), reaction mixtures were incubated at ambient temperature for 60 min.
The enzyme reactions were quenched by addition of 10 μL of 12 mM EDTA in 1× LANCE detection solution to each well. The plates were then incubated at ambient temperature for 30 min. Time-resolved fluorescence signal of reactions were read on an EnVision or PHERAstar plate reader with the following parameters: Excitation wavelength=337 nm, emission wavelength (donor)=620 nm; emission wavelength (acceptor)=665 nm.
The raw HTRF data were converted to % active as follows:
% active=(sample−NC)/(PC−NC)*100
where NC is the mean of negative control (reactions without GRK2), and PC is the mean of positive control (reactions with GRK2 but without inhibitor). IC50 values were determined from a 4-parameter fit, using the following equation:
Y=Bottom+(Top−Bottom)/(1+10^((Log IC50-X)*Hill slope)),
where X=log10 of the compound concentration.
With `COc1cccc(C2CCCCC3c4ccc(-c5cn[nH]c5)cc4C(=O)N23)c1` (single isomer, unassigned) [Compound 3, (7S*)-7-(3-methoxyphenyl)-3-(1H-pyrazol-4-yl)-7,8,9,10,11,11a-hexahydro-5H-azepino[2,1-a]isoindol-5-one], the half-inhibitory concentration (IC50) (commonly the point on the concentration scale where inhibition reaches its midpoint) came out at 9 nM. The value for `COc1cc(F)cc(C2CCCCC3c4ccc(-c5cn[nH]c5)cc4C(=O)N23)c1` (stereo not drawn) [Compound 7] was 24 nM. Under `COc1cccc([C@H]2COCCCCC3c4ccc(-c5cn[nH]c5)cc4C(=O)N32)c1` (mixture of isomers) [Compound 9] stands 1400 nM; under `COc1cccc([C@H]2COC/C=C\CC3c4ccc(-c5cn[nH]c5)cc4C(=O)N32)c1` (mixture of isomers) [Compound 8], 166 nM; under `COc1cccc(C2CCCCC3c4ccc(-c5cn[nH]c5)cc4C(=O)N23)c1` (single isomer, unassigned) [Compound 1, (7R*)-7-(3-methoxyphenyl)-3-(1H-pyrazol-4-yl)-7,8,9,10,11,11a-hexahydro-5H-azepino[2,1-a]isoindol-5-one], < 5 nM. Under `COc1cccc(N2CC=CCC3c4ccc(-c5cn[nH]c5)cc4C(=O)N32)c1` (racemic) [Compound 16, 1-(3-methoxyphenyl)-8-(1H-pyrazol-4-yl)-1,2,5,5a-tetrahydro-10H-[1,2]diazepino[7,1-a]isoindol-10-one] stands 8 nM; under `O=C1c2cc(-c3cn[nH]c3)ccc2C2CCCCC(c3cccc(O)c3)N12` (single isomer, unassigned) [Compound 6, (7R*)-7-(3-hydroxyphenyl)-3-(1H-pyrazol-4-yl)-7,8,9,10,11,11a-hexahydro-5H-azepino[2,1-a]isoindol-5-one], 12 nM; under `COc1cccc(N2CCCCC3c4ccc(-c5cn[nH]c5)cc4C(=O)N32)c1` (racemic) [Compound 15, (Rac)-1-(3-methoxyphenyl)-8-(1H-pyrazol-4-yl)-1,2,3,4,5,5a-hexahydro-10H-[1,2]diazepino[7,1-a]isoindol-10-one], 6 nM. Regarding `O=C1c2cc(-c3cn[nH]c3)ccc2C2CCCCC(c3cccc(O)c3)N12` (single isomer, unassigned) [Compound 2, (7S*)-7-(3-hydroxyphenyl)-3-(1H-pyrazol-4-yl)-7,8,9,10,11,11a-hexahydro-5H-azepino[2,1-a]isoindol-5-one], the IC50 turned out to be 8 nM. As for `COc1cccc([C@H]2COC/C=C\CC3c4ccc(-c5cn[nH]c5)nc4C(=O)N32)c1` (mixture of isomers) [Compound 14], the half-inhibitory concentration (IC50) was determined as 1010 nM.

Turning to `COc1cccc(C2CCCCC3c4ccc(-c5cn[nH]c5)cc4C(=O)N23)c1` (single isomer, unassigned) [Compound 5], the IC50 is 11 nM.

With `COc1cc(F)cc(C2CCCCC3c4ccc(-c5cn[nH]c5)cc4C(=O)N23)c1` (stereo not drawn) [Compound 4], the 50% inhibitory concentration (IC50) amounted to 9 nM.

Source of the values: patent US20220220125A1, “FUSED ISOINDOLIN-1-ONE DERIVATIVES USEFUL AS GRK2 INHIBITORS” (Janssen Pharmaceutica NV, priority 2019, published 2022).
